Measurements: patent publication US5688824A, “Use of leflunomide to prevent or control xenograft rejection” (priority 1996, dated 1997)
Read-outs that look alike come from different tables or passages of the source.

Columns and labels:
[1] = test system: human peripheral blood lymphocytes; test: one-way mixed lymphocyte reaction (3H-thymidine uptake); assay type: cell-based
Description: The effect of varying concentrations of leflunomide product (A771726, Hoechst AG Werk Albert, Wiesbaden, Germany) in combination with varying concentrations of rapamycin (Wyeth-Ayerst Research, Rouses Point, N.Y.) was evaluated in a one-way mixed lymphocyte reaction (MLR) performed according to Kahan et al., Transplantation, 51:232 (1991). Briefly, human peripheral blood lymphocytes (2×10^5 per well) were incubated with an equal number of gamma-irradiated, allogeneic peripheral blood lymphocytes for 5 days in the presence of varying concentrations of leflunomide and rapamycin. The lymphocytes were then incubated for 16 to 20 hours with 1 μCi/well of ^3 H-thymidine. The amount of ^3 H-thymidine uptake was measured, and the percent inhibition of proliferation by each drug or drug combination was calculated. Data from two trials appear below in Tables 4 and 5.

cGvH disease or SLE = conditions: mouse, U.S. Pat. No. 4,965,276; cited from earlier work
murine B-cell = conditions: in vitro; cited from earlier work
murine T-cell = conditions: in vitro; cited from earlier work
[2] = test system: heterotopic small intestinal transplantation; conditions: cited from earlier work
SLE in MRL/lpr mice = conditions: at the end of 10 weeks, mice with elevated urine protein; cited from earlier work
renal allograft = conditions: BN-LEW renal transplant; cited from earlier work
[3] = test system: rejection of concordant hamster to rat cardiac xenografts; conditions: earlier work, cited from earlier work
[4] = humans; cited from earlier work

Structure (SMILES): C/C(O)=C(\C#N)C(=O)Nc1ccc(C(F)(F)F)cc1 [A771726, N-(4-trifluoromethylphenyl)-2-cyano-3-hydroxycrotonamide]
- % Inhibition of Lymphocyte Proliferation ([1]; 12.50 μM Lef, 0.00 nM Rapa, Table 4): 15.19%
- % Inhibition of Lymphocyte Proliferation ([1]; 12.50 μM Lef, 0.00 nM Rapa, Table 5): 21.84%
- % Inhibition of Lymphocyte Proliferation ([1]; 25.00 μM Lef, 0.00 nM Rapa, Table 4): 37.35%
- % Inhibition of Lymphocyte Proliferation ([1]; 25.00 μM Lef, 0.00 nM Rapa, Table 5): 38.40%
- % Inhibition of Lymphocyte Proliferation ([1]; 50.00 μM Lef, 0.00 nM Rapa, Table 4): 56.71%
- % Inhibition of Lymphocyte Proliferation ([1]; 50.00 μM Lef, 0.00 nM Rapa, Table 5): 68.63%
- glomerulonephritis, anti-dsDNA titer, GvH index, T-lymphocyte proliferative ability (cGvH disease or SLE): prevented development of glomerulonephritis, reduced anti-dsDNA titer, decreased the GvH index (a measure of relative spleen enlargement), and improved the diminished proliferative ability of T-lymphocytes
- inhibition of development of cGvH disease or SLE (cGvH disease or SLE): effective in inhibiting the development of cGvH disease or SLE
- inhibition of murine B-cell proliferation (murine B-cell): more potent inhibitor of B-cell proliferation
- inhibition of murine T-cell proliferation (murine T-cell): inhibit murine B-cell and T-cell proliferation
- survival of recipients ([2]; 5 mg/kg/day by gavage for 7 days): 15.0 ± 2.1 days
- survival of recipients ([2]; 5 mg/kg/day by gavage for 14 days): 21.2 ± 1.6 days
- survival of recipients ([2]; 5 mg/kg/day by gavage for 28 days): 33.8 ± 2.4 days

Structure (SMILES): C[C@]12C=CC(=O)C=C1CC[C@@H]1[C@@H]2[C@@H](O)C[C@@]2(C)[C@H]1CC[C@]2(O)C(=O)CO [prednisolone]
- animals still alive (SLE in MRL/lpr mice): 40%
- protection (renal allograft): neither azathioprine nor prednisolone offered any protection

Structure (SMILES): CO[C@H]1C[C@@H]2CC[C@@H](C)[C@@](O)(O2)C(=O)C(=O)N2CCCC[C@H]2C(=O)O[C@H]([C@H](C)C[C@@H]2CC[C@@H](O)[C@H](OC)C2)CC(=O)[C@H](C)/C=C(\C)[C@@H](O)[C@@H](OC)C(=O)[C@H](C)C[C@H](C)/C=C/C=C/C=C/1C [rapamycin]
- % Inhibition of Lymphocyte Proliferation ([1]; 0.010 nM Rapa, 0.00 μM Lef, Table 4): 27.12%
- % Inhibition of Lymphocyte Proliferation ([1]; 0.010 nM Rapa, 0.00 μM Lef, Table 5): 4.78%
- % Inhibition of Lymphocyte Proliferation ([1]; 0.050 nM Rapa, 0.00 μM Lef, Table 4): 38.78%
- % Inhibition of Lymphocyte Proliferation ([1]; 0.050 nM Rapa, 0.00 μM Lef, Table 5): 37.75%
- % Inhibition of Lymphocyte Proliferation ([1]; 0.100 nM Rapa, 0.00 μM Lef, Table 4): 57.42%
- % Inhibition of Lymphocyte Proliferation ([1]; 0.100 nM Rapa, 0.00 μM Lef, Table 5): 51.71%
- % Inhibition of Lymphocyte Proliferation ([1]; 1.00 nM Rapa, 0.00 μM Lef, Table 4): 89.25%
- % Inhibition of Lymphocyte Proliferation ([1]; 1.00 nM Rapa, 0.00 μM Lef, Table 5): 80.83%

Structure (SMILES): Cn1cnc([N+](=O)[O-])c1Sc1ncnc2nc[nH]c12 [azathioprine]
- protection (renal allograft): neither azathioprine nor prednisolone offered any protection

Structure (SMILES): C=CC[C@@H]1/C=C(\C)C[C@H](C)C[C@H](OC)[C@H]2O[C@@](O)(C(=O)C(=O)N3CCCC[C@H]3C(=O)O[C@H](/C(C)=C/[C@@H]3CC[C@@H](O)[C@H](OC)C3)[C@H](C)[C@@H](O)CC1=O)[C@H](C)C[C@@H]2OC [FK-506]
- effect on xenograft survival ([3]; hamster to rat cardiac xenograft): limited effect on xenograft survival even at lethal doses

Structure (SMILES): O=P1(N(CCCl)CCCl)NCCCO1 (stereo not shown) [Cytoxan]
- control of xenograft rejection ([3]; Cytoxan): can completely control rejection of xenografts
- toxicity of required dose ([3]; Cytoxan): lethally toxic range

Structure (SMILES): Nc1ccc(C(F)(F)F)cc1 [trifluoromethyl aniline]
- side effect of accumulation of the metabolite [4]: Heinz-body hemolytic anemia
